In patent US12595269B2, “Morpholine-like monoamine releasers” (Solvonis Therapeutics Ireland Holdings Limited, priority 2022, dated 2026):

How the values were obtained:
DAT (dopamine release) = biological target: T1, DAT (dopamine release) (Rattus norvegicus, UniProt P23977); assay: Dopamine release filtration assay in rat striatal synaptosomes; format: cell-based; conditions: % of release by 50 μM MDMA, read-out: DAT release pEC50 (converted)
T1 construct: added to the tube containing the crude striatal synaptosomes preparation; from tissue; host or cells: rat striatum, crude synaptosomes
T1 sequence (P23977 whole entry): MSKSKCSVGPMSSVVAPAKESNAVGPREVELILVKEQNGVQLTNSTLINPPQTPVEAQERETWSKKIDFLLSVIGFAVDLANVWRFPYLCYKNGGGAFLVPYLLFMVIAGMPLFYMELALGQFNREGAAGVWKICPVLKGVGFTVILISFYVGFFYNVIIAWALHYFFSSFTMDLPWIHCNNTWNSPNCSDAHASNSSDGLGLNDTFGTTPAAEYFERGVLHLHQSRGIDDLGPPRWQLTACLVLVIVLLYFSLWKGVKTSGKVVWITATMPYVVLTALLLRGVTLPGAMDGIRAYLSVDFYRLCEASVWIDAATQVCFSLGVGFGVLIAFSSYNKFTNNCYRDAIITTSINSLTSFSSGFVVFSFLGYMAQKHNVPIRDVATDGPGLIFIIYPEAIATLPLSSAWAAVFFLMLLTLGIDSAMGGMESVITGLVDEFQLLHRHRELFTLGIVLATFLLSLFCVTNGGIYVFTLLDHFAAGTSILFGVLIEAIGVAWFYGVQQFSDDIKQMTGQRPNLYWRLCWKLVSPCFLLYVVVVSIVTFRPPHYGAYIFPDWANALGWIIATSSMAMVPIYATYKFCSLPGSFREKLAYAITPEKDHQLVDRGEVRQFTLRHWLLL
Description: Methods and Procedure—Release: The potency of the disclosed compounds for stimulating dopamine (DA) release was measured by an endpoint release filtration assay in a 96-well format using rat synaptosomes, essentially as described by Sandtner et al., Mol. Pharmacol., 2016; 89(1):165-75, and Baumann et al., Neuropsychopharmacol., 2013; 38:552-562, with some variations.
One male rat was sacrificed and striatum/cortex regions were dissected over ice. The striatum portions were weighed and put in a glass tube for homogenization, containing ice-cold 0.32 M sucrose (dilution 1:24 w/v), while the frontal cortex tissue was diluted in ice-cold 0.32 M sucrose, 1:20 w/v. Tissues were homogenized and centrifuged for 10 mins at 1000×g. The two supernatants from striatum and cortex (crude synaptosomes) were retained on ice until use.
Test compounds were then serially diluted 1:4 in neat DMSO as concentration-response curves (CRC) of 11 points. […]
^3H-Dopamine was added to the tube containing the crude striatal synaptosomes preparation, diluted 1:20 (v/v) in complete Krebs-phosphate buffer, and was incubated at RT and gently mixed for 60 minutes. […] The retained radioactivity was counted in a scintillation counter after the addition of 50 μL/well Microscint-20.
The raw data (cpm) from residual radioactivity onto the filter were elaborated for the determination of pEC50/EC50 values. Specifically, the compound effect was expressed as the percent of maximal release obtained with 50 μM MDMA (100% release) in comparison to vehicle (0.5% DMSO, 0% release). […] In each plate, for both 0% and 100% of release, the signal window is monitored performing Z′ calculations using raw data of four replicates.

[1] = Plasma protein binding by equilibrium dialysis, human plasma; format: in vitro ADME; conditions: pH 7.4
Description: Methods and Procedure: This study was performed in agreement with the previously described procedures to assure data integrity and adherence to GLP standards. Plasma protein binding and blood tissue binding of test items (0.5 μM) was determined using biological samples from male Sprague Dawley (SD) rats and humans. […] Dexamethasone was used as a control for lung tissue binding. Various biological samples were spiked with test compounds according to the methods that follow.
Preparation of plasma or blood samples: An appropriate amount of test compound was dissolved in DMSO to yield a 10 mM solution. Further dilutions, to obtain 50 μM working solutions (WS), were then prepared using 50% acetonitrile in Milli-Q water. These 100×WS were used to spike plasma or blood to obtain a final concentration of 0.5 μM. From this initial spiking solution, control samples (n=3), referred to as T=0, were immediately extracted and used to calculate the recovery of the test item.
An equilibrium dialysis method was performed to determine protein binding in the various biological samples described herein. Materials were prepared and methods were in accordance with the following procedures. […]
Dialysis buffer was prepared by dissolving Na2HPO4 8.69 g, KH2PO4 1.90 g, and NaCl 4.11 g in 1 L of MilliQ water, and adjusting the pH to 7.4 with H3PO4. […] In order to control the integrity of the membrane after the dialysis process, the presence of protein was assessed in the buffer compartment. […]
Samples were analyzed in a LC-MS/MS system using an analytical method to monitor the compound to internal standard peak area ratios as representative of the compound concentrations. Alternatively, samples were analyzed by RapidFire.
Protein binding in plasma, blood, brain, and lung tissue samples were determined with the following formula: Afu=Buffer/x, wherein “x” may be plasma, blood, brain, or lung, and “Afu” is the apparent fraction unbound, and the other variables refer to the analyte/internal standard ratio determined in their specific compartment (buffer, plasma, blood, brain homogenate, and lung homogenate); […]

Compound	EC50 (DAT (dopamine release)) [µM]	fraction unbound at 5 h, 0.5 µM [1]
Clc1ccc([C@]23CN[C@H](CO2)C3)cc1Cl (single isomer, unassigned) [516A]	1.1	
Clc1ccc([C@@]23CN[C@@H](CO2)C3)cc1Cl (single isomer, unassigned) [518A]	0.0331	0.0143
Clc1ccc(C23CNC(CO2)C3)cc1Cl (stereo not drawn) [522A, 1-(3,4-dichlorophenyl)-2-oxa-5-azabicyclo[2.2.1]heptane]	0.0617	0.021
CNC(C)Cc1ccc2c(c1)OCO2 (stereo not drawn) [MDMA, reference compound]		> 0.5
